Assay results as given in patent US20200138854A1, “Method of Detecting and Quantifying Bile Acid from Saliva” (Ironwood Pharmaceuticals, Inc., priority 2017, published 2020).
Several values for one entry are separate records, joined by “and”; a condition that tells them apart may be missing. Identical values can stand only once. Like-named read-outs stand apart in the source and are kept apart here.

How the values were obtained:
[1] = system: conscious, pentagastrin-stimulated fistula dog; conditions: cited from earlier work
[2] = system: intragastric pH; conditions: cited from earlier work
[3] = Long-term (1 month at −20° C. and −80° C.) stability in untreated human saliva; conditions: for % Bias QC-High / % CV QC-High / Difference from Fresh (%) QC-High / Mean concentration QC-High / Concentration QC-High / Fresh QCs (Batch 34) Mean at Time Zero, QC-High: untreated human saliva, nominal 80.0 ng/mL; for Concentration QC-High: run 35
[4] = Frozen (−20° C.) short-term stability in cholestyramine-treated human saliva; conditions: for % Bias QC-LLOQ / % CV QC-LLOQ / Mean concentration QC-LLOQ / Concentration QC-LLOQ: nominal 0.500 ng/mL; for Concentration QC-LLOQ / Concentration QC-Mid / Concentration QC-High: run 33; for % Bias QC-Mid / % CV QC-Mid / Mean concentration QC-Mid / Concentration QC-Mid: nominal 8.00 ng/mL; for % Bias QC-High / % CV QC-High / Mean concentration QC-High / Concentration QC-High: nominal 80.0 ng/mL
Summary of the method: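 Cholestyramine-treated human saliva was spiked with each analyte at QC-LLOQ, QC-Low, QC-Mid and QC-High levels and stored at −20° C. After 1 day and 2 days of storage, samples were extracted in replicates of four and analysed.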

[5] = in vivo, 3 h
[6] = 1 month

For `COC(=O)Nc1cccc(C)c1CNc1cccn2c(C)c(C)nc12` [BY841, (8-(2-methoxycarbonylamino-6-methyl-phenylmethylamino)-2,3-dimethyl-imidazo [1,2-a]-pyridine)], the “intragastric pH” value [1] is listed as at most 6, the “pH elevation compared with ranitidine and omeprazole” value [1] is listed as “superior to both ranitidine and omeprazole” and the “effectiveness in comparison with the standard dose of omeprazole” value ([2]; 50 mg or 100 mg twice daily, Day one of treatment) is listed as “markedly more effective”. The “potency in comparison with the standard dose of omeprazole” value ([2]; 50 mg or 100 mg twice daily, following repeated daily administration) was “at least as potent as omeprazole” and the “intragastric pH” value ([2]; single 50 mg oral dose) was “about 6”.
In the case of `C[C@H](CCC(=O)O)[C@H]1CC[C@H]2[C@@H]3CC[C@@H]4C[C@H](O)CC[C@]4(C)[C@H]3C[C@H](O)[C@]12C` [Deoxycholic Acid, Deoxycholic acid], the “Long-term stability in untreated human saliva” value ([3]; at 80° C. (sic)) is reported as “up to 1 month”, the “Stability in Untreated Human Saliva” value ([3]; at −20° C.) is reported as 1 Month and the “Stability in Untreated Human Saliva” value ([3]; at −80° C.) is reported as 1 Month. The “Short-term stability in cholestyramine-treated human saliva” value [4] was “up to 2 days”, the “Stability in Treated Human Saliva” value [4] was 2 days and the “Concentration in human saliva samples” value [5] was 1.65 ng/mL.
With `CC(CCC(=O)NCC(=O)O)C1CCC2C3C(O)CC4CC(O)CCC4(C)C3CCC12C` (stereo not drawn) [Glycochenodeoxycholic Acid, Glycochenodeoxycholic acid] the “Long-term stability in untreated human saliva” value [6] was “up to 1 month”, the “Stability in Untreated Human Saliva” value [6] was 1 Month and the “% Bias QC-High” value ([3]; 1 month −20° C. storage) was −4.9%. For the same molecule, the “% CV QC-High” value ([3]; 1 month −20° C. storage) was 2.4%, the “Difference from Fresh (%) QC-High” value ([3]; 1 month −20° C. storage) was −4.4% and the “Mean concentration QC-High” value ([3]; 1 month −20° C. storage) was 76.1 ng/mL. For the same molecule, the “Concentration QC-High” value ([3]; 1 month −20° C. storage) was 74.0 ng/mL and 77.4 ng/mL and 76.9 ng/mL, the “% Bias QC-High” value ([3]; 1 month −80° C. storage) was −3.6% and the “% CV QC-High” value ([3]; 1 month −80° C. storage) was 5.0%. The “Difference from Fresh (%) QC-High” value ([3]; 1 month −80° C. storage) was −3.1%, the “Mean concentration QC-High” value ([3]; 1 month −80° C. storage) was 77.1 ng/mL and the “Concentration QC-High” value ([3]; 1 month −80° C. storage) was 80.6 ng/mL and 77.8 ng/mL and 73.0 ng/mL. The “Fresh QCs (Batch 34) Mean at Time Zero, QC-High” value ([3]; reference for −20° C. storage) was 79.6 ng/mL, the “Fresh QCs (Batch 34) Mean at Time Zero, QC-High” value ([3]; reference for −80° C. storage) was 79.6 ng/mL and the “% Bias QC-LLOQ” value ([4]; 1 Day at −20° C.) was 9.1%. For the same molecule, the “% CV QC-LLOQ” value ([4]; 1 Day at −20° C.) was 4.7%, the “Mean concentration QC-LLOQ” value ([4]; 1 Day at −20° C.) was 0.546 ng/mL and the “Concentration QC-LLOQ” value ([4]; 1 Day at −20° C.) was 0.538 ng/mL and 0.551 ng/mL and 0.516 ng/mL and 0.578 ng/mL. The “% Bias QC-Mid” value ([4]; 1 Day at −20° C.) was −2.4%, the “% CV QC-Mid” value ([4]; 1 Day at −20° C.) was 2.4% and the “Mean concentration QC-Mid” value ([4]; 1 Day at −20° C.) was 7.81 ng/mL. For the same molecule, the “Concentration QC-Mid” value ([4]; 1 Day at −20° C.) was 7.56 ng/mL and 7.99 ng/mL and 7.92 ng/mL and 7.76 ng/mL, the “% Bias QC-High” value ([4]; 1 Day at −20° C.) was −1.3% and the “% CV QC-High” value ([4]; 1 Day at −20° C.) was 2.2%. The “Mean concentration QC-High” value ([4]; 1 Day at −20° C.) was 78.9 ng/mL, the “Concentration QC-High” value ([4]; 1 Day at −20° C.) was 79.3 ng/mL and 80.9 ng/mL and 76.6 ng/mL and 78.9 ng/mL and the “% Bias QC-LLOQ” value ([4]; 2 Days at −20° C.) was 16.5%. For the same molecule, the “% CV QC-LLOQ” value ([4]; 2 Days at −20° C.) was 4.1%, the “Mean concentration QC-LLOQ” value ([4]; 2 Days at −20° C.) was 0.583 ng/mL and the “Concentration QC-LLOQ” value ([4]; 2 Days at −20° C.) was 0.596 ng/mL and 0.597 ng/mL and 0.555 ng/mL and 0.674^a ng/mL. The “% Bias QC-Mid” value ([4]; 2 Days at −20° C.) was 2.1%, the “% CV QC-Mid” value ([4]; 2 Days at −20° C.) was 3.8% and the “Mean concentration QC-Mid” value ([4]; 2 Days at −20° C.) was 8.17 ng/mL. For the same molecule, the “Concentration QC-Mid” value ([4]; 2 Days at −20° C.) was 7.71 ng/mL and 8.40 ng/mL and 8.22 ng/mL and 8.33 ng/mL, the “% Bias QC-High” value ([4]; 2 Days at −20° C.) was 0.9% and the “% CV QC-High” value ([4]; 2 Days at −20° C.) was 2.9%. For the same molecule, the “Mean concentration QC-High” value ([4]; 2 Days at −20° C.) was 80.8 ng/mL, the “Concentration QC-High” value ([4]; 2 Days at −20° C.) was 78.3 ng/mL and 80.4 ng/mL and 80.3 ng/mL and 84.0 ng/mL and the “Short-term stability in cholestyramine-treated human saliva” value [4] was “up to 2 days”. For the same molecule, the “Stability in Treated Human Saliva” value [4] was 2 days.
